Test results reported in patent publication US7897627B2, “Heteroaryl derivatives as orexin receptor antagonists” (Hoffmann-La Roche Inc., priority 2007, dated 2011).

What follows are compounds tested against T1, human orexin-2 (hOX2) receptor (Homo sapiens, UniProt O43614) (assay: Intracellular Ca2+ mobilization assay (FLIPR), CHO(dHFr-) cells expressing hOX2, orexin-A as agonist). Conditions: antagonist Kb=IC50/(1+[A]/EC50); orexin-A at EC80; CHO(dHFr-)-OX2R cells; antagonist applied 25 min before agonist.
T1 construct: expressed in transfected cells
T1 sequence (O43614 1-444): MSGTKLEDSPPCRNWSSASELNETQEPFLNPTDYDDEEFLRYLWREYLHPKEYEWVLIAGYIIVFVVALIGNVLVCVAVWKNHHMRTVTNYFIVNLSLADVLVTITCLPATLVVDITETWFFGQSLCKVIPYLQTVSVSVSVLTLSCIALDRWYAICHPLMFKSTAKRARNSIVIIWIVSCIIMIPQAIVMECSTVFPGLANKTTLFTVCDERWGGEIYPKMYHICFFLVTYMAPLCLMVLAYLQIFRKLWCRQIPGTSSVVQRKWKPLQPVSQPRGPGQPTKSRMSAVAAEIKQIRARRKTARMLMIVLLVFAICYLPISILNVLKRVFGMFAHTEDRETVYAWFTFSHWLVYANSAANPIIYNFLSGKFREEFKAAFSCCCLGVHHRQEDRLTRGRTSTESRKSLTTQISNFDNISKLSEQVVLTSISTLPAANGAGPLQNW
Format: cell-based
Protocol: Intracellular Ca^2+ Mobilization Assay
The Chinese Hamster Ovary (dHFr-) mutant cell line stably expressing human orexin-1 (hOX1) or human orexin-2 (hOX2) receptors were maintained in Dulbecco's Modified Eagle Medium (1×) with GlutaMax™1, 4500 mg/L D-Glucose and Sodium Pyruvate (Catalog No. 31966-021, Invitrogen, Carlsbad, Calif.), 5% dialyzed fetal calf serum (Catalog No. 26400-044), 100 μg/ml penicillin and 100 μg/ml streptomycin. The cells were seeded at 5×10^4 cells/well in the poly-D-lysine treated, 96-well, black/clear-bottomed plates (Catalog No. BD356640, BD Biosciences, Palo Alto, Calif.). 24 h later, the cells were loaded for 1 h at 37° C. with 4 μM Flou-4 acetoxymethyl ester (Catalog No. F-14202, Molecular Probes, Eugene, Oreg.) in FLIPR buffer (1×HBSS, 20 mM HEPES, 2.5 mM Probenecid). Hanks' Balanced Salt Solution (HBSS) (10×) (catalog No. 14065-049) and HEPES (1M) (catalog No. 15630-056) were purchased from Invitrogen, Carlsbad, Calif. Probenecid (250 mM) (catalog No. P8761) was from Sigma, Buchs, Switzerland. The cells were washed five times with FLIPR buffer to remove excess dye and intracellular calcium mobilization, [Ca^2−]i were measured using a Fluorometric Imaging Plate Reader (FLIPR-96, Molecular Devices, Menlo Park, Calif.) as described previously (Malherbe et al., Mol. Pharmacol., 64, 823-832, 2003). Orexin A (catalog No. 1455, Toris Cookson Ltd, Bristol, UK) was used as agonist. Orexin A ([…] stock solution in DMSO) was diluted in FLIPR buffer+0.1% BSA. The EC50 and EC80 values of orexin-A were measured daily from standard agonist concentration-response curves in CHO(dHFr-)-OX1R and -OX2R cell lines. All compounds were dissolved in 100% DMSO. Inhibition curves were determined by addition of 11 concentrations (0.0001-10 μM) of inhibitory compounds and using EC80 value of orexin-A as agonist (a concentration which gave 80% of max agonist response, determined daily). The antagonists were applied 25 min (incubation at 37° C.) before the application of the agonist. Responses were measured as peak increase in fluorescence minus basal, normalized to the maximal stimulatory effect induced by EC80 value of orexin-A or orexin-B. Inhibition curves were fitted according to the Hill equation: y=100/(1+(x/IC50)^nH), where nH=slope factor using Excel-fit 4 software (Microsoft).
Kb values were calculated according to the following equation Kb=IC50/(1+[A]/EC50) where A is the concentration of agonist added which is very close to agonist EC80 value, and IC50 and EC50 values were derived from the antagonist inhibition and orexin-A or B agonist curves, respectively.

Row | SMILES | Kb [µM]
1 | O=C(c1ccccc1C(F)(F)F)N1CC[C@@H](Nc2nc3ccc(Cl)cc3o2)C1 [Example 63, [(R)-3-(6-Chloro-benzooxazol-2-ylamino)-pyrrolidin-1-yl]-(2-trifluoromethyl-phenyl)-methanone] | 0.0219
2 | Cc1ccc(C(F)(F)F)c(C(=O)N2CC[C@@H](Nc3nc4ccc(Cl)cc4o3)C2)c1 [Example 68, [(R)-3-(6-Chloro-benzooxazol-2-ylamino)-pyrrolidin-1-yl]-(5-methyl-2-trifluoromethyl-phenyl)-methanone] | 0.0018
3 | O=C(c1ccccc1OC(F)(F)F)N1CC[C@@H](Nc2nc3ccc(Cl)cc3o2)C1 [Example 71, [(R)-3-(6-Chloro-benzooxazol-2-ylamino)-pyrrolidin-1-yl]-(2-trifluoromethoxy-phenyl)-methanone] | 0.0097
4 | O=C(c1c(F)cccc1C(F)(F)F)N1CC[C@@H](Nc2nc3ccc(Cl)cc3o2)C1 [Example 72, [(R)-3-(6-Chloro-benzooxazol-2-ylamino)-pyrrolidin-1-yl]-(2-fluoro-6-trifluoromethyl-phenyl)-methanone] | 0.0298
5 | CCOc1cccc(OCC)c1C(=O)N1CC[C@@H](Nc2nc3ccc(Cl)cc3o2)C1 [Example 73, [(R)-3-(6-Chloro-benzooxazol-2-ylamino)-pyrrolidin-1-yl]-(2,6-diethoxy-phenyl)-methanone] | 0.0012
6 | O=C(c1c(Cl)cccc1C(F)(F)F)N1CC[C@@H](Nc2nc3ccc(Cl)cc3o2)C1 [Example 79, [(R)-3-(6-Chloro-benzooxazol-2-ylamino)-pyrrolidin-1-yl]-(2-chloro-6-trifluoromethyl-phenyl)-methanone] | 0.0173
7 | O=C(c1ccccc1OC(F)(F)C(F)F)N1CC[C@@H](Nc2nc3ccc(Cl)cc3o2)C1 [Example 82, [(R)-3-(6-Chloro-benzooxazol-2-ylamino)-pyrrolidin-1-yl]-[2-(1,1,2,2-tetrafluoro-ethoxy)-phenyl]-methanone] | 0.0041
8 | Cc1cc(C(=O)N2CC[C@@H](Nc3nc4ccc(Cl)cc4o3)C2)c(C(F)(F)F)o1 [Example 86, [(R)-3-(6-Chloro-benzooxazol-2-ylamino)-pyrrolidin-1-yl]-(5-methyl-2-trifluoromethyl-furan-3-yl)-methanone] | 0.0169
9 | O=C(c1c(F)cccc1N1CCCC1)N1CC[C@@H](Nc2nc3ccc(Cl)cc3o2)C1 [Example 90, [(R)-3-(6-Chloro-benzooxazol-2-ylamino)-pyrrolidin-1-yl]-(2-fluoro-6-pyrrolidin-1-yl-phenyl)-methanone] | 0.0186
10 | COc1cccc(OC)c1C(=O)N1CC[C@@H](Nc2cnc3cc(F)c(F)cc3n2)C1 [Example 92, [(R)-3-(6,7-Difluoro-quinoxalin-2-ylamino)-pyrrolidin-1-yl]-(2,6-dimethoxy-phenyl)-methanone] | 0.0029
11 | COc1cccc(OC)c1C(=O)N1CC[C@@H](Nc2nc3ccc(F)c(F)c3o2)C1 [Example 93, [(R)-3-(6,7-Difluoro-benzooxazol-2-ylamino)-pyrrolidin-1-yl]-(2,6-dimethoxy-phenyl)-methanone] | 0.0164
12 | COc1cccc(OC)c1C(=O)N1CC[C@@H](Nc2nc3c(F)cccc3s2)C1 [Example 94, (2,6-Dimethoxy-phenyl)-[(R)-3-(4-fluoro-benzothiazol-2-ylamino)-pyrrolidin-1-yl]-methanone] | 0.0091
13 | COc1cccc(OC)c1C(=O)N1CC[C@@H](Nc2nc3ccc(F)cc3o2)C1 [Example 95, (2,6-Dimethoxy-phenyl)-[(R)-3-(6-fluoro-benzooxazol-2-ylamino)-pyrrolidin-1-yl]-methanone] | 0.0426
14 | COc1cccc(OC)c1C(=O)N1CC[C@@H](Nc2nc3cccc(Cl)c3o2)C1 [Example 97, [(R)-3-(7-Chloro-benzooxazol-2-ylamino)-pyrrolidin-1-yl]-(2,6-dimethoxy-phenyl)-methanone] | 0.0063
15 | COc1cccc(OC)c1C(=O)N1CC[C@@H](Nc2nc3cccc(F)c3s2)C1 [Example 100, (2,6-Dimethoxy-phenyl)-[(R)-3-(7-fluoro-benzothiazol-2-ylamino)-pyrrolidin-1-yl]-methanone] | 0.01
16 | COc1cccc(OC)c1C(=O)N1CC[C@@H](Nc2nc3c(C)cccc3o2)C1 [Example 106, (2,6-Dimethoxy-phenyl)-[(R)-3-(4-methyl-benzooxazol-2-ylamino)-pyrrolidin-1-yl]-methanone] | 0.0129
17 | COc1cccc(OC)c1C(=O)N1CC[C@@H](Nc2cnc3cc(F)ccc3n2)C1 [Example 110, (2,6-Dimethoxy-phenyl)-[(R)-3-(6-fluoro-quinoxalin-2-ylamino)-pyrrolidin-1-yl]-methanone] | 0.0319
18 | O=C(c1ccccc1C(F)(F)F)N1CC[C@@H](Nc2nc3ccc(F)cc3s2)C1 [Example 112, [(R)-3-(6-Fluoro-benzothiazol-2-ylamino)-pyrrolidin-1-yl]-(2-trifluoromethyl-phenyl)-methanone] | 0.0344

Now from value to compound:

Row | Kb [µM] | SMILES
19 | 0.0054 | O=C(c1cnoc1-c1ccccc1)N1CC[C@@H](Nc2nc3ccc(Cl)cc3o2)C1 [Example 61, [(R)-3-(6-Chloro-benzooxazol-2-ylamino)-pyrrolidin-1-yl]-(5-phenyl-isoxazol-4-yl)-methanone]
20 | 0.014 | O=C(c1ccccc1-c1ncn[nH]1)N1CC[C@@H](Nc2nc3ccc(Cl)cc3o2)C1 [Example 62, [(R)-3-(6-Chloro-benzooxazol-2-ylamino)-pyrrolidin-1-yl]-[2-(2H-[1,2,4]triazol-3-yl)-phenyl]-methanone]
21 | 0.0272 | O=C(c1ccccc1-c1cccnc1)N1CC[C@@H](Nc2nc3ccc(Cl)cc3o2)C1 [Example 65, [(R)-3-(6-Chloro-benzooxazol-2-ylamino)-pyrrolidin-1-yl]-(2-pyridin-3-yl-phenyl)-methanone]
22 | 0.0051 | Cc1onc(-c2ccccc2)c1C(=O)N1CC[C@@H](Nc2nc3ccc(Cl)cc3o2)C1 [Example 67, [(R)-3-(6-Chloro-benzooxazol-2-ylamino)-pyrrolidin-1-yl]-(5-methyl-3-phenyl-isoxazol-4-yl)-methanone]
23 | 0.0155 | Cc1noc(-c2ccccc2C(=O)N2CC[C@@H](Nc3nc4ccc(Cl)cc4o3)C2)n1 [Example 69, [(R)-3-(6-Chloro-benzooxazol-2-ylamino)-pyrrolidin-1-yl]-[2-(3-methyl-[1,2,4]oxadiazol-5-yl)-phenyl]-methanone]
24 | 0.0024 | O=C(c1ccccc1-c1cccs1)N1CC[C@@H](Nc2nc3ccc(Cl)cc3o2)C1 [Example 70, [(R)-3-(6-Chloro-benzooxazol-2-ylamino)-pyrrolidin-1-yl]-(2-thiophen-2-yl-phenyl)-methanone]
25 | 0.0163 | Cc1cccc(-c2ccccc2C(=O)N2CC[C@@H](Nc3nc4ccc(Cl)cc4o3)C2)c1 [Example 75, [(R)-3-(6-Chloro-benzooxazol-2-ylamino)-pyrrolidin-1-yl]-(3′-methyl-biphenyl-2-yl)-methanone]
26 | 0.0145 | Cc1nc(-c2ccccc2)c(C(=O)N2CC[C@@H](Nc3nc4ccc(Cl)cc4o3)C2)s1 [Example 78, [(R)-3-(6-Chloro-benzooxazol-2-ylamino)-pyrrolidin-1-yl]-(2-methyl-4-phenyl-thiazol-5-yl)-methanone]
27 | 0.0056 | O=C(c1ccccc1-c1ccsc1)N1CC[C@@H](Nc2nc3ccc(Cl)cc3o2)C1 [Example 84, [(R)-3-(6-Chloro-benzooxazol-2-ylamino)-pyrrolidin-1-yl]-(2-thiophen-3-yl-phenyl)-methanone]
